Values of other authors as cited in patent US10017479B2, “Process to make non nucleosidal reverse transcriptase inhibitors (NNRTI) for the treatment of HIV” (priority 2013, dated 2018).

Columns and labels:
[1] = test system: wild type strains of HIV-1

O=C(CSc1nnnn1-c1cccc2ccccc12)Nc1ccccc1[N+](=O)[O-] [compound 3, 2-((1-(naphthalen-1-yl)-1H-tetrazol-5-yl)thio)-N-(2-nitrophenyl)actetamid-e]
activity against the mutated strains of HIV-1 (mutated strains of HIV-1): nanomolar activity
activity against the wild type strains of HIV-1 [1]: nanomolar activity
